Test results taken from patent US10131652B2, “Pyrimidinyloxy benzene derivatives as herbicides” (E. I. DU PONT DE NEMOURS AND COMPANY, priority 2014, dated 2018).
Read-outs that look alike come from different tables or passages of the source.

Assays:
Type in all cases: in vivo
rice (Oryza sativa) = assay: Test D flooded paddy test plant response; details: Flood (flooded paddy test), visual rating on scale 0 to 100 (0 no effect, 100 complete control), 13 to 15 days
Source text: (§1) Plant species in the flooded paddy test consisted of rice (Oryza sativa), small-flower umbrella sedge (Cyperus difformis), ducksalad (Heteranthera limosa), and bamyardgrass (Echinochloa crus-galli) grown to the 2-leaf stage for testing. At time of treatment, test pots were flooded to 3 cm above the soil surface, treated by application of test compounds directly to the paddy water, and then maintained at that water depth for the duration of the test. Treated plants and controls were maintained in a greenhouse for 13 to 15 days, after which time all species were compared to controls and visually evaluated. Plant response ratings, summarized in Table D, are based on a scale of 0 to 100 where 0 is no effect and 100 is complete control. A dash (-) response means no test result.

[1] = system: small-flower umbrella sedge (Cyperus difformis); assay: Test D flooded paddy test plant response; details: Flood (flooded paddy test), visual rating on scale 0 to 100 (0 no effect, 100 complete control), 13 to 15 days
Source text: as §1

[2] = system: barnyardgrass (Echinochloa crus-galli); assay: Test D flooded paddy test plant response; details: Flood (flooded paddy test), visual rating on scale 0 to 100 (0 no effect, 100 complete control), 13 to 15 days
Source text: as §1

[3] = system: ducksalad (Heteranthera limosa); assay: Test D flooded paddy test plant response; details: Flood (flooded paddy test), visual rating on scale 0 to 100 (0 no effect, 100 complete control), 13 to 15 days
Source text: as §1

[4] = system: dayflower (Virginia (VA) dayflower, Commelina virginica); assay: Test F pre-/postemergence plant response; details: Commelina virginica, scale 0 to 100, read-out: Plant response rating, Dayflower, VA
Outline: (§2)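 Seeds were sown in silt loam and sprayed preemergence; in parallel, plants at 2–18 cm (1- to 4-leaf) received postemergence sprays. Test chemicals were in a non-phytotoxic solvent with surfactant. After 14–21 days in the greenhouse, injury was rated visually against controls on a 0–100 scale (100 = complete control).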

[5] = system: arrowleaf sida (Sida rhombifolia); assay: Test F pre-/postemergence plant response; details: Sida rhombifolia, scale 0 to 100, read-out: Plant response rating, Arrowleaf Sida
Outline: as §2

[6] = system: giant foxtail (Setaria faberii); assay: Test F pre-/postemergence plant response; details: Setaria faberi, pre-emergence, scale 0 to 100, read-out: Plant response rating, Foxtail, Giant
Outline: as §2

[7] = system: sandbur (southern sandbur, Cenchrus echinatus); assay: Test F pre-/postemergence plant response; details: Cenchrus echinatus, scale 0 to 100, read-out: Plant response rating, Sandbur
Outline: as §2

[8] = system: waterhemp (common waterhemp, Amaranthus rudis); assay: Test F pre-/postemergence plant response; details: Amaranthus tuberculatus, scale 0 to 100, read-out: Plant response rating, Waterhemp
Outline: as §2

[9] = system: johnsongrass (Sorghum halepense); assay: Test F pre-/postemergence plant response; details: Sorghum halepense, pre-emergence, scale 0 to 100, read-out: Plant response rating, Johnsongrass
Outline: as §2

[10] = system: palmer pigweed (Amaranthus palmeri); assay: Test F pre-/postemergence plant response; details: Amaranthus palmeri, scale 0 to 100, read-out: Plant response rating, Pigweed, Palmer
Outline: as §2

[11] = system: morningglory (Ipomoea coccinea); assay: Test F pre-/postemergence plant response; details: Ipomoea, pre-emergence, scale 0 to 100, read-out: Plant response rating, Morningglory
Outline: as §2

[12] = system: green foxtail (Setaria viridis); assay: Test F pre-/postemergence plant response; details: Setaria viridis, pre-emergence, scale 0 to 100, read-out: Plant response rating, Foxtail, Green
Outline: as §2

[13] = system: barnyardgrass (Echinochloa crus-galli); assay: Test F pre-/postemergence plant response; details: Echinochloa crus-galli, scale 0 to 100, read-out: Plant response rating, Barnyardgrass
Outline: as §2

[14] = system: lambsquarters (Chenopodium album); assay: Test F pre-/postemergence plant response; details: Chenopodium album, pre-emergence, scale 0 to 100, read-out: Plant response rating, Lambsquarters
Outline: as §2

[15] = post-emergence, 8 g ai/ha Postemergence
[16] = post-emergence, 16 g ai/ha Postemergence
[17] = post-emergence, 31 g ai/ha Postemergence
[18] = post-emergence, 62 g ai/ha Postemergence
[19] = post-emergence, 125 g ai/ha Postemergence
[20] = pre-emergence, 8 g ai/ha Preemergence
[21] = pre-emergence, 16 g ai/ha Preemergence
[22] = pre-emergence, 31 g ai/ha Preemergence
[23] = pre-emergence, 62 g ai/ha Preemergence
[24] = pre-emergence, 125 g ai/ha Preemergence

FC(F)c1cc(-c2ccccc2Oc2ncc(Cl)cn2)on1 [Compound 53, 5-chloro-2-[2-[3-(difluoromethyl)-5-isoxazolyl]phenoxy]pyrimidine]
80: Plant response rating, Ducksalad ([3]; 125 g ai/ha) | Plant response rating, Ducksalad ([3]; 250 g ai/ha)
30%: pest or weed control at 8 g/ha [4, 15] | pest or weed control at 31 g/ha [4, 17]
98%: pest or weed control at 31 g/ha [5, 17] | pest or weed control at 125 g/ha [5, 19] | pest or weed control at 31 g/ha [8, 17] | pest or weed control at 125 g/ha ([14]; 125 g ai/ha, Preemergence)
75: Plant response rating, Sedge, Umbrella ([1]; 250 g ai/ha)
5%: pest or weed control at 62 g/ha [7, 18] | pest or weed control at 125 g/ha ([9]; 125 g ai/ha Preemergence)
10%: pest or weed control at 125 g/ha [7, 19] | pest or weed control at 125 g/ha [13, 19]
20%: pest or weed control at 16 g/ha [5, 21] | pest or weed control at 31 g/ha ([6]; 31 g ai/ha Preemergence) | pest or weed control at 62 g/ha ([12]; Preemergence) | pest or weed control at 62 g/ha [13, 23]
40: Plant response rating, Ducksalad ([3]; 31 g ai/ha)
90%: pest or weed control at 16 g/ha [5, 16] | pest or weed control at 31 g/ha [10, 17] | pest or weed control at 31 g/ha [10, 22] | pest or weed control at 125 g/ha ([12]; 125 g ai/ha, Preemergence)
40%: pest or weed control at 16 g/ha [4, 16]
80%: pest or weed control at 8 g/ha [8, 15]
60%: pest or weed control at 125 g/ha [4, 19]
0%: pest or weed control at 8 g/ha [4, 20] | pest or weed control at 16 g/ha [4, 21] | pest or weed control at 31 g/ha [4, 22] | pest or weed control at 8 g/ha [5, 20] | pest or weed control at 8 g/ha ([6]; 8 g ai/ha Preemergence) | pest or weed control at 16 g/ha ([6]; 16 g ai/ha Preemergence) | pest or weed control at 8 g/ha [7, 15] | pest or weed control at 16 g/ha [7, 16] | pest or weed control at 31 g/ha [7, 17] | pest or weed control at 8 g/ha [7, 20] | pest or weed control at 16 g/ha [7, 21] | pest or weed control at 31 g/ha [7, 22] | pest or weed control at 125 g/ha [7, 24] | pest or weed control at 62 g/ha ([7]; pre-emergence, Preemergence) | pest or weed control at 8 g/ha [8, 20] | pest or weed control at 16 g/ha [8, 21] | pest or weed control at 8 g/ha ([9]; 8 g ai/ha Preemergence) | pest or weed control at 16 g/ha ([9]; 16 g ai/ha Preemergence) | pest or weed control at 31 g/ha ([9]; 31 g ai/ha Preemergence) | pest or weed control at 62 g/ha ([9]; Preemergence) | pest or weed control at 8 g/ha [10, 20] | pest or weed control at 16 g/ha [10, 21] | pest or weed control at 8 g/ha ([11]; 8 g ai/ha Preemergence) | pest or weed control at 16 g/ha ([11]; 16 g ai/ha Preemergence) | pest or weed control at 31 g/ha ([11]; 31 g ai/ha Preemergence) | pest or weed control at 125 g/ha ([11]; 125 g ai/ha Preemergence) | pest or weed control at 62 g/ha ([11]; Preemergence) | pest or weed control at 8 g/ha ([12]; 8 g ai/ha Preemergence) | pest or weed control at 16 g/ha ([12]; 16 g ai/ha, Preemergence) | pest or weed control at 31 g/ha ([12]; 31 g ai/ha, Preemergence) | pest or weed control at 8 g/ha [13, 15] | pest or weed control at 16 g/ha [13, 16] | pest or weed control at 31 g/ha [13, 17] | pest or weed control at 62 g/ha [13, 18] | pest or weed control at 8 g/ha [13, 20] | pest or weed control at 16 g/ha [13, 21] | pest or weed control at 31 g/ha [13, 22]
50%: pest or weed control at 62 g/ha [4, 18] | pest or weed control at 62 g/ha [4, 23] | pest or weed control at 125 g/ha [13, 24]
50: Plant response rating, Ducksalad ([3]; 62 g ai/ha)
65%: pest or weed control at 31 g/ha [5, 22] | pest or weed control at 16 g/ha [10, 16] | pest or weed control at 8 g/ha ([14]; 8 g ai/ha Preemergence) | pest or weed control at 16 g/ha ([14]; 16 g ai/ha, Preemergence)
70%: pest or weed control at 8 g/ha [5, 15] | pest or weed control at 62 g/ha ([6]; 62 g ai/ha Preemergence) | pest or weed control at 8 g/ha [10, 15]
0: Plant response rating, Rice (rice (Oryza sativa); 31 g ai/ha) | Plant response rating, Rice (rice (Oryza sativa); 62 g ai/ha) | Plant response rating, Rice (rice (Oryza sativa); 125 g ai/ha) | Plant response rating, Rice (rice (Oryza sativa); 250 g ai/ha) | Plant response rating, Sedge, Umbrella ([1]; 31 g ai/ha) | Plant response rating, Sedge, Umbrella ([1]; 62 g ai/ha) | Plant response rating, Barnyardgrass ([2]; 31 g ai/ha) | Plant response rating, Barnyardgrass ([2]; 62 g ai/ha) | Plant response rating, Barnyardgrass ([2]; 125 g ai/ha) | Plant response rating, Barnyardgrass ([2]; 250 g ai/ha)
100%: pest or weed control at 62 g/ha [5, 18] | pest or weed control at 62 g/ha [5, 23] | pest or weed control at 125 g/ha [5, 24] | pest or weed control at 62 g/ha [8, 18] | pest or weed control at 125 g/ha [8, 19] | pest or weed control at 125 g/ha [8, 24] | pest or weed control at 62 g/ha ([8]; pre-emergence, Preemergence) | pest or weed control at 62 g/ha [10, 18] | pest or weed control at 125 g/ha [10, 19] | pest or weed control at 125 g/ha [10, 24] | pest or weed control at 62 g/ha ([10]; pre-emergence, Preemergence)
95%: pest or weed control at 125 g/ha [4, 24] | pest or weed control at 125 g/ha ([6]; 125 g ai/ha Preemergence) | pest or weed control at 16 g/ha [8, 16] | pest or weed control at 31 g/ha [8, 22] | pest or weed control at 31 g/ha ([14]; 31 g ai/ha, Preemergence) | pest or weed control at 62 g/ha ([14]; Preemergence)
70: Plant response rating, Sedge, Umbrella ([1]; 125 g ai/ha)
